We go through one compound from patent US20030118653A1, “Quick dissolving oral mucosal drug delivery device with moisture barrier coating” (Lavipharm Laboratories Inc., priority 2001, published 2003).

A short description of the data set: Bioavailability of sildenafil from film with water soluble inert filler. In kind it is in vivo. Particulars: incorporated in a film with water soluble inert filler xylitol. From the text: A further parameter affecting the uptake of an active agent or combination of active agents from the quick dissolving oral mucosal drug delivery devices of the present invention is the manner in which the active agent or combination of active agents is dispersed in the delivery device. For example, the active agent or combination of active agents may be dispersed as colloidal particles or be microencapsulated within the delivery device or alternatively may be mixed throughout the delivery device as a reagent during casting. In another example, the active agent can form a solid dispersion with a water soluble inert filler for purposes of increasing the solubility of the active agent when released from the inner layer thereby enhancing bioavailability of the active agent. […] In another example, a bitter active agent can form saliva insoluble complex with water insoluble polymers for the purpose of taste masking.

Turning to `CCCc1nn(C)c2c(=O)[nH]c(-c3cc(S(=O)(=O)N4CCN(C)CC4)ccc3OCC)nc12` [sildenafil], the bioavailability result is “enhance the bioavailability”.
